The record followed here is PubChem BioAssay AID292 (DTP/NCI, 2004).

SMILES strings stand for the structures. “And” between values parts separate entries of the source, which are not always exact repeats. Equal values may be shown once. Toxic doses and inconclusive results are not listed.

This assay has as its system B6C3F1 mice, ip Sarcoma M5076, median survival T/C. The assay can be described thus: NCI In Vivo Anticancer Drug Screen. Data for tumor model Sarcoma M5076 (intraperitoneal) in B6C3F1 mice. The note with it: endpoint: median survival time, schedule: Q04DX004 (ip), higher = longer survival. In a few lines: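 Mice carrying the transplanted tumour received compound treatment. Survival was recorded, and each value is the treated-group measurement divided by that of the vehicle-dosed control group.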

Where [1] appears, read: dose: 12.5 mg/kg/injection, vehicle: Klucel (hydroxypropylcellulose) (HPC).
Setting [2] is: dose: 25.0 mg/kg/injection, vehicle: Klucel (hydroxypropylcellulose) (HPC).
The mark [3] stands for this setting: dose: 50.0 mg/kg/injection, vehicle: Klucel (hydroxypropylcellulose) (HPC).
[4] abbreviates: dose: 50.0 mg/kg/injection, vehicle: saline with Tween-80.
Where [5] appears, read: dose: 100.0 mg/kg/injection, vehicle: saline with Tween-80.
[6] abbreviates: dose: 200.0 mg/kg/injection, vehicle: saline with Tween-80.
[7] abbreviates: dose: 50.0 mg/kg/injection, vehicle: saline.
The mark [8] stands for this setting: dose: 100.0 mg/kg/injection, vehicle: saline.

On to `COC(COC(=O)N1CCN(C=O)CC1)C1=C(N2CC2)C(=O)C(C)=C(N2CC2)C1=O` (centres undefined), for which the T/C runs as follows: (dose: 1.5 mg/kg/injection, vehicle: saline) 124 % of control; (dose: 3.0 mg/kg/injection, vehicle: saline) 152 % of control; (dose: 3.6 mg/kg/injection, vehicle: saline) 150 % of control; (dose: 6.0 mg/kg/injection, vehicle: saline) 176 % of control and 190 % of control; (dose: 10.0 mg/kg/injection, vehicle: saline) 245 % of control; (dose: 12.0 mg/kg/injection, vehicle: saline) 151 % of control.

As to `CCC1=C(c2cccc(OC(C)=O)c2)C(C)c2ccc(OC(C)=O)cc21` (centres undefined), the T/C reads like this: (dose: 6.25 mg/kg/injection, vehicle: Klucel (hydroxypropylcellulose) (HPC)) 93 % of control; under setting [1], 93 % of control; under setting [2], 100 % of control; under setting [3], 116 % of control; (dose: 100.0 mg/kg/injection, vehicle: Klucel (hydroxypropylcellulose) (HPC)) 105 % of control; (dose: 200.0 mg/kg/injection, vehicle: Klucel (hydroxypropylcellulose) (HPC)) 91 % of control.

Consider `COc1cc2c(cc1OC)[C@@H]1C(=O)c3ccc4c(c3O[C@@H]1CO2)C[C@H](C(C)C)O4`, for which the T/C reads like this: under setting [1], 104 % of control; under setting [2], 104 % of control; under setting [3], 104 % of control.

For `CN(C)CCN1C(=O)c2cccc3cc(N)cc(c23)C1=O`, the T/C reads like this: (dose: 12.96 mg/kg/injection, vehicle: acid diluted with saline) 108 % of control and 117 % of control; (dose: 21.6 mg/kg/injection, vehicle: acid diluted with saline) 159 % of control; (dose: 36.0 mg/kg/injection, vehicle: acid diluted with saline) 158 % of control.

For the molecule `COc1c(O)cc2c(c1OC)-c1ccc(SC)c(=O)cc1C(NC(C)=O)CC2` (centres undefined), the T/C runs as follows: (dose: 5.0 mg/kg/injection, vehicle: Klucel (hydroxypropylcellulose) (HPC)) 154 % of control and 196 % of control; (dose: 10.0 mg/kg/injection, vehicle: Klucel (hydroxypropylcellulose) (HPC)) 235 % of control and 237 % of control.

On to `O=C1C(=O)N(c2ccccc2Cl)C(=O)N1Cc1ccccc1`, for which the T/C (dose: 43.75 mg/kg/injection, vehicle: Klucel (hydroxypropylcellulose) (HPC)) was 102 % of control; the T/C (dose: 87.5 mg/kg/injection, vehicle: Klucel (hydroxypropylcellulose) (HPC)) is 98 % of control; the T/C (dose: 175.0 mg/kg/injection, vehicle: Klucel (hydroxypropylcellulose) (HPC)) is 109 % of control; the T/C (dose: 350.0 mg/kg/injection, vehicle: Klucel (hydroxypropylcellulose) (HPC)) is 94 % of control; the T/C (dose: 700.0 mg/kg/injection, vehicle: Klucel (hydroxypropylcellulose) (HPC)) is 93 % of control.

As for `c1ccc([Te][Te]c2ccccc2)cc1`, the T/C is 106 % of control (dose: 18.75 mg/kg/injection, vehicle: saline with Tween-80); 100 % of control (dose: 37.5 mg/kg/injection, vehicle: saline with Tween-80); 98 % of control (dose: 75.0 mg/kg/injection, vehicle: saline with Tween-80).

On to `O=NNc1ncccn1`, for which the T/C is 101 % of control (dose: 25.0 mg/kg/injection, vehicle: water); 100 % of control (dose: 50.0 mg/kg/injection, vehicle: water); 97 % of control (dose: 100.0 mg/kg/injection, vehicle: water); 100 % of control (dose: 200.0 mg/kg/injection, vehicle: water); 110 % of control (dose: 400.0 mg/kg/injection, vehicle: water).

In the case of `CN(C)[C@@H]1C(=O)C(C(=O)NCN2CCN(C(=N)N=C(N)N)CC2)=C(O)[C@@]2(O)C(=O)C3=C(O)c4c(O)cccc4[C@@](C)(O)[C@H]3C[C@@H]12`, the T/C (dose: 0.31 mg/kg/injection, vehicle: saline) was 105 % of control; the T/C (dose: 0.62 mg/kg/injection, vehicle: saline) was 102 % of control; the T/C (dose: 1.25 mg/kg/injection, vehicle: saline) is 102 % of control; the T/C (dose: 1.8 mg/kg/injection, vehicle: suspension in saline) is 94 % of control; the T/C (dose: 2.5 mg/kg/injection, vehicle: saline) is 95 % of control; the T/C (dose: 3.0 mg/kg/injection, vehicle: suspension in saline) is 90 % of control. In addition, the T/C runs as follows: (dose: 5.0 mg/kg/injection, vehicle: saline) 106 % of control; (dose: 5.0 mg/kg/injection, vehicle: suspension in saline) 93 % of control; (dose: 8.33 mg/kg/injection, vehicle: suspension in saline) 91 % of control; (dose: 13.88 mg/kg/injection, vehicle: suspension in saline) 94 % of control.

On to `NC(=S)c1ncn(C2OC(COC=O)C(OC=O)C2OC=O)c1NC=O` (centres undefined), for which the T/C runs as follows: (dose: 86.4 mg/kg/injection, vehicle: Klucel (hydroxypropylcellulose) (HPC)) 182 % of control; (dose: 144.0 mg/kg/injection, vehicle: Klucel (hydroxypropylcellulose) (HPC)) 174 % of control; (dose: 240.0 mg/kg/injection, vehicle: Klucel (hydroxypropylcellulose) (HPC)) 184 % of control; (dose: 400.0 mg/kg/injection, vehicle: Klucel (hydroxypropylcellulose) (HPC)) 168 % of control and 198 % of control; (dose: 666.67 mg/kg/injection, vehicle: Klucel (hydroxypropylcellulose) (HPC)) 229 % of control.

Regarding `O=C(Nc1ccccc1O)C1C(=O)C(=O)N(c2ccccc2O)C1=O` (centres undefined), the T/C is, setting by setting: under setting [4], 106 % of control; under setting [5], 103 % of control; under setting [6], 100 % of control; (dose: 400.0 mg/kg/injection, vehicle: saline with Tween-80) 100 % of control; (dose: 800.0 mg/kg/injection, vehicle: saline with Tween-80) 95 % of control.

Consider `N#CCS(=O)(=O)c1cccc[n+]1[O-]`, for which the T/C is 99 % of control under setting [4], 99 % of control under setting [5] and 93 % of control under setting [6].

Turning to `O=S(O)Cc1ccccc1CSSSCc1ccccc1CS(=O)O`, the T/C is, setting by setting: under setting [7], 105 % of control; (dose: 50.0 mg/kg/injection, vehicle: suspension in saline) 111 % of control; under setting [8], 103 % of control; (dose: 100.0 mg/kg/injection, vehicle: suspension in saline) 95 % of control; (dose: 200.0 mg/kg/injection, vehicle: saline) 94 % of control; (dose: 400.0 mg/kg/injection, vehicle: saline) 99 % of control. Besides, the T/C was 91 % of control (dose: 400.0 mg/kg/injection, vehicle: suspension in saline); 95 % of control (dose: 800.0 mg/kg/injection, vehicle: saline); 91 % of control (dose: 800.0 mg/kg/injection, vehicle: suspension in saline).

Consider `[Cl][Mn][Cl]`, for which the T/C is 96 % of control (dose: 12.5 mg/kg/injection, vehicle: saline); 100 % of control (dose: 25.0 mg/kg/injection, vehicle: saline); 124 % of control under setting [7]; 111 % of control under setting [8].
